The assay deals with serum lipids and serum lipid hydroperoxide. As to the kind of experiment: Pharmacological test method A for anti-hyperlipidemic activity (serum lipids, 2 weeks feeding). The format is in vivo, male Wistar strain rats. The settings on record: for AI [(TC - HDL-C)/(HDL-C)] / HDL-C in serum / LPO in serum / PL in serum / TC in serum / TG in serum: 1% in hyperlipidemic diet, 2 weeks; for AI % of diff. / AI Diff. / HDL-C % of diff. / HDL-C Diff. / LPO % of diff. / LPO Diff. / PL % of diff. / PL Diff. / TC % of diff. / TC Diff. / TG % of diff. / TG Diff.: versus control group. On the procedure: Male Wistar strain rats (100±lg, each 10 rats were formed into a group) were used as test animals. Diet for the control group was prepared by thorough mixing of 20% casein, 62.5% glucose, 10% hydrogenated coconut oil, 2% agar powder, 4% vitamin-containing salt mixture, 1% cholesterol, and 0.5% cholic acid (this composition is described by Fukushima et al, in "Yakugaku Zassi", 89, No. 6, pp. 857-862 (1962)). Diet for the test groups was prepared by good mixing of 1% each of cycloartenol, 24-methylenecycloartanol, and cyclobranol with the control group's diet. Each rat was kept in a cage at a constant temperature of 23±1° C. and a constant R.H. of 55±5% for 2 weeks, during which 10 g/day of the prescribed was given. Finally the rats were fasted from food except water for 16 hours (from 4 p.m. of the 14th test day to 8 a.m. of the 15th test day), and under anesthesia with pentbarbital sodium (tradename: Nembutal), blood was taken from each rat through the descending abdominal arota. Then, TC, HDL-C, TG, PL, and LPO in the serum were measured in the manner that will be described below.
A TC kit-K (supplied by Nippon Shoji Kaisha, Ltd.) was used. The principle of this determination is as follows: The ester of cholesterol in the serum is hydrolyzed with cholesterol-ester hydrolase into free cholesterol and fatty acids. All the free cholesterol is oxidized with cholesterol oxydase to form Δ^4 -cholestenone and hydrogen peroxide. Phenol and 4-aminoantipyrin are oxidatively condensed together by the formed hydrogen peroxide and peroxydase. The produced red quinone coloring matter is measured by colorimetry for absorbance at 500 nm using a spectrophotometer, thereby determining the TC:
The color-developing liquid (3.0 ml) is well mixed with the sample serum (0.02 ml). The mixture once heated at 37° C. for 15 minutes, is measured for absorbance at 500 nm with a spectrophotometer. The found absorbance is denoted by EA. On the other hand, the color-developing liquid (3.0 ml) is well mixed with the standard solution. The mixture is treated and measured for absorbance at 500 nm in the same manner as the above. This found absorbance is denoted by ES. Both EA and ES are determined with reference to the value of the blank test conducted using the color-developing liquid (3.0 ml) alone. [formula]
An HDL-C kit-N (supplied by Nippon Shoji Kaisha, Ltd.) was used. […] (VLDL) and lo density lipoprotein (LDL) in the serum is precipitated by the action of heparin. The precipitate is separated by centrifugation. High density lipoprotein (HDL) is dissolved in the separated supernatant. Esters of cholesterol in this fraction is hydrolyzed with cholesterol-ester hydrolase into free cholesterol and fatty acids. All the free cholesterol is oxidized with cholesterol oxydase to form Δ^4 -cholestenone and hydrogen peroxide. Phenol and 4-aminoantipyrine are oxidatively condensed together by the formed hydrogen peroxide and peroxydase. The produced red quinone coloring matter is measured by colorimetry for absorbance at 500 nm using a spectrophotometer, thereby determining the HDL-C.
A PL kit-K (supplied by Nippon Shoji Kaisha, Ltd.) was used for the determination. Lecithin, sphingomyelin, and lysolecithin are decomposed by phospholipase D into choline and phosphatidic acid, N-acylsphingosyl phosphate, or lysophosphatidic acid, respectively. The resulting choline is quantitatively decomposed by choline oxydase into hydrogen peroxide and betaine. With this hydrogen peroxide, and aid of peroxydase, phenol and 4-aminoantipyrin are condensed into red quinone pigment, then the absorbance at 500 nm of which is measured with a spectrophotometer, thereby determining the PL.
Serum TG level was determined by means of a triglyceride test kit (supplied by Wako Pure Chemical Industries, Ltd.) in which acetylacetone is used for a reagent, in the following manner: Serum proteins are precipitated, when isopropyl alcohol and the sample serum are mixed. […]

As to `CC(C)=C(C)CCC(C)C1CCC2(C)C3CCC4C(C)(C)C(OC(=O)c5ccccc5O)CCC45CC35CCC12C` (centres unmarked) [Example 41, cyclobranyl-o-hydroxybenzoate], the “AI [(TC - HDL-C)/(HDL-C)]” value stood at 0.890, the HDL-C in serum amounted to 92.9 mg/dL, the LPO in serum was found to be 2.01 nmol/mL and the PL in serum was 156.7 mg/dL. For the same compound, the TC in serum turned out to be 175.6 mg/dL, the TG in serum was determined as 41.5 mg/dL, the “AI % of diff.” value is recorded as -47.1% and the “AI Diff.” value is -0.794. Further, the “HDL-C % of diff.” value is “+14.8%”, the “HDL-C Diff.” value is listed as “+12.0 mg/dl”, the “LPO % of diff.” value is -13.0% and the “LPO Diff.” value is -0.30 nmol/mL. Further, the “PL % of diff.” value is -12.8%, the “PL Diff.” value was -23.0 mg/dL, the “TC % of diff.” value was 19.1% and the “TC Diff.” value is -41.5 mg/dL. Further, the “TG % of diff.” value is -3.0% and the “TG Diff.” value was -1.3 mg/dL.
In the case of `CC(C)=C(C)CCC(C)C1CCC2(C)C3CCC4C(C)(C)C(OC(=O)/C=C/c5ccc(O)c(O)c5)CCC45CC35CCC12C` (centres unmarked) [Example 32, cyclobranyl-3,4-dihydroxycinnamate], the “AI [(TC - HDL-C)/(HDL-C)]” value is reported as 1.135, the HDL-C in serum was found to be 89.2 mg/dL, the LPO in serum was found to be 2.06 nmol/mL and the PL in serum amounted to 168.2 mg/dL. The TC in serum was 190.4 mg/dL, the TG in serum is 40.7 mg/dL, the “AI % of diff.” value is listed as -32.6% and the “HDL-C % of diff.” value is on record as “+10.2%”. Moreover, the “HDL-C Diff.” value is given as “+8.3 mg/dl”, the “LPO % of diff.” value is given as -10.7%, the “LPO Diff.” value is -0.25 nmol/mL and the “PL % of diff.” value is -6.4%. The “PL Diff.” value was -11.5 mg/dL, the “TC % of diff.” value is listed as -12.3%, the “TC Diff.” value is -26.7 mg/dL and the “TG % of diff.” value was -4.8%. Further, the “TG Diff.” value was -2.1 mg/dL.
Regarding `CC(C)=C(C)CCC(C)C1CCC2(C)C3CCC4C(C)(C)C(OC(=O)c5ccccc5N)CCC45CC35CCC12C` (centres unmarked) [Example 47, cyclobranyl-o-aminobenzoate], the “AI [(TC - HDL-C)/(HDL-C)]” value was 1.811, the HDL-C in serum came to 53.4 mg/dL, the LPO in serum stood at 2.03 nmol/mL and the PL in serum amounted to 140.3 mg/dL. The TC in serum stood at 150.1 mg/dL, the TG in serum worked out at 20.4 mg/dL, the “AI % of diff.” value was -1.9% and the “AI Diff.” value is reported as -0.036. The “HDL-C % of diff.” value is given as -9.0%, the “HDL-C Diff.” value is -5.3 mg/dL, the “LPO % of diff.” value is recorded as -13.2% and the “LPO Diff.” value was -0.31 nmol/mL. The “PL % of diff.” value was -5.5%, the “PL Diff.” value is -8.1 mg/dL, the “TC % of diff.” value is -10.2% and the “TC Diff.” value is -17.0 mg/dL. The “TG % of diff.” value is reported as -17.7% and the “TG Diff.” value was -4.4 mg/dL.
On to `C=C(CCC(C)C1CCC2(C)C3CCC4C(C)(C)C(OC(=O)C=Cc5ccc(O)c(O)c5)CCC45CC35CCC12C)C(C)C` (centres unmarked) [Example 82, 24-Methylenecycloartanyl ester of 3,4-dihydroxycinnamic acid], for which the “AI [(TC - HDL-C)/(HDL-C)]” value was determined as 1.228, the HDL-C in serum was found to be 87.9 mg/dL, the LPO in serum worked out at 2.08 nmol/mL and the PL in serum amounted to 173.9 mg/dL. Moreover, the TC in serum came out at 195.8 mg/dL, the TG in serum was 42.3 mg/dL, the “AI % of diff.” value is listed as -27.1% and the “AI Diff.” value was -0.456. Further, the “HDL-C % of diff.” value is recorded as “+8.7%”, the “HDL-C Diff.” value was “+7.0 mg/dl”, the “LPO % of diff.” value was -9.8% and the “LPO Diff.” value was -0.23 nmol/mL. Besides, the “PL % of diff.” value is given as -3.2%, the “PL Diff.” value was -5.8 mg/dL, the “TC % of diff.” value is recorded as -9.8% and the “TC Diff.” value was -21.3 mg/dL. For the same compound, the “TG % of diff.” value is recorded as -1.2% and the “TG Diff.” value is -0.5 mg/dL.
With `C=C(CCC(C)C1CCC2(C)C3CCC4C(C)(C)C(OC(=O)CCCCCCC/C=C\C/C=C\CCCCC)CCC45CC35CCC12C)C(C)C` (centres unmarked) [Example 93, 24-Methylenecycloartanyl ester of linoleic acid], the “AI [(TC - HDL-C)/(HDL-C)]” value amounted to 0.761, the HDL-C in serum is 91.5 mg/dL, the LPO in serum amounted to 1.70 nmol/mL and the PL in serum came out at 150.2 mg/dL. Moreover, the TC in serum stood at 161.1 mg/dL, the TG in serum is 35.1 mg/dL, the “AI % of diff.” value was -37.7% and the “AI Diff.” value is -0.461. Further, the “HDL-C % of diff.” value is on record as “+5.8%”, the “HDL-C Diff.” value was “+5.0 mg/dl”, the “LPO % of diff.” value is -24.3% and the “LPO Diff.” value is -0.54 nmol/mL. Also, the “PL % of diff.” value is -13.0%, the “PL Diff.” value was -22.4 mg/dL, the “TC % of diff.” value was -16.2% and the “TC Diff.” value was -31.1 mg/dL. The “TG % of diff.” value is -3.3% and the “TG Diff.” value was -1.2 mg/dL.
Turning to `COc1ccc(C(=O)OC2CCC34CC35CCC3(C)C(C(C)CCC=C(C)C)CCC3(C)C5CCC4C2(C)C)cc1` (centres unmarked) [Example 14, cycloartenyl-p-methoxybenzoate], the “AI [(TC - HDL-C)/(HDL-C)]” value was 1.275, the HDL-C in serum is 64.1 mg/dL, the LPO in serum is 1.81 nmol/mL and the PL in serum is 120.9 mg/dL. Also, the TC in serum is 145.8 mg/dL, the TG in serum is 25.4 mg/dL, the “AI % of diff.” value was -27.8% and the “AI Diff.” value is -0.492. In addition, the “HDL-C % of diff.” value was “+6.5%”, the “HDL-C Diff.” value is “+3.9 mg/dl”, the “LPO % of diff.” value is -28.5% and the “LPO Diff.” value was -0.72 nmol/mL. Besides, the “PL % of diff.” value is -11.6%, the “PL Diff.” value was -15.8 mg/dL, the “TC % of diff.” value is on record as -12.5% and the “TC Diff.” value was -20.8 mg/dL. Also, the “TG % of diff.” value is recorded as -6.6% and the “TG Diff.” value was -1.8 mg/dL.
With `CCOc1cc(C(=O)OC2CCC34CC35CCC3(C)C(C(C)CCC(C)=C(C)C)CCC3(C)C5CCC4C2(C)C)ccc1O` (centres unmarked) [Example 62, cyclobranyl-3-ethoxy-4-hydroxybenzoate], the “AI [(TC - HDL-C)/(HDL-C)]” value was determined as 0.474, the HDL-C in serum was found to be 108.2 mg/dL, the LPO in serum was 1.94 nmol/mL and the PL in serum is 156.5 mg/dL. Moreover, the TC in serum came out at 159.5 mg/dL, the TG in serum was 32.0 mg/dL, the “AI % of diff.” value is listed as -52.7% and the “AI Diff.” value was -0.528. For the same compound, the “HDL-C % of diff.” value is reported as “+12.5%”, the “HDL-C Diff.” value is “+12.0 mg/dl”, the “LPO % of diff.” value is listed as -16.8% and the “LPO Diff.” value is -0.39 nmol/mL. For the same compound, the “PL % of diff.” value is recorded as -13.5%, the “PL Diff.” value is -24.4 mg/dL, the “TC % of diff.” value turned out to be 17.2% and the “TC Diff.” value was -33.1 mg/dL. Besides, the “TG % of diff.” value is reported as -3.6% and the “TG Diff.” value is -1.2 mg/dL.

For the origin of these results see patent US4748161A, “Triterpenyl esters of organic acids and hypolipidemic agents composed of them” (Amano Pharmaceutical Co., Ltd., priority 1984, dated 1988).
